Reference: patent US8168199B2, “Dipeptidyl peptidase IV inhibitors for the treatment of schizophrenia and depression” (priority 2000, dated 2012)

Test system: Male WistarF/Han (WF) rats
Test: Social interaction (SI) test with Y1R antagonist BIBP3226, P32/98 and NPY (Example 4)
Type: in vivo, rat
Conditions: i.c.v. 50 nmol
Procedure: Animals. Male WistarF/Han (WF) rats (Central Animal Laboratory, Hannover Medical School, Hannover, Germany, weighing 330±31 g±SD, were housed in a sound-proof, temperature controlled (24.0±0.5° C.) room under specific pathogen free conditions with a 12/12 h dark/light cycle (lights on at 07.00 with illumination level of 80 Lux). Food (Altromin lab chow pellets) and tap water were available ad libitum. Under ketamine/xylasine (100/5 mg/kg, i.p.) anesthesia, the rats were fixed in a Kopf stereotaxic frame and implanted with cannulae (Plastic One, Inc., Roanoke, Va., USA) above the lateral ventricle. All research and animal care procedures were approved by the Lower Saxony district government (Hannover, Germany) and followed principles described in the European Community's Council Directive of 24 Nov. 1986 (86/609/EEC).
Surgery and i.c.v. application. […]
Animals were randomly divided into eight experimental groups (n=6-8/group), which completed one SI test of anxiety: (1) aCSF+aCSF+aCSF; (2) BIBP+aCSF+aCSF; (3) aCSF+P32/98+aCSF; (4) BIBP+P32/98+aCSF; (5) aCSF+aCSF+NPY; (6) BIBP+aCSF+NPY; (7) aCSF+[…]+NPY; (8) BIBP+P32/98+NPY. […] The time spent in active social interaction (SI-time), 1 h, and 12 h food-intake were measured. […]
Social interaction (SI) test. […] Behavior was monitored using a video camera placed above the field inside the testing/isolation box. The SI behavior of both rats was recorded on-line from a monitor placed outside on top of the box. The following parameters were scored by an observer (HPN) unaware of the substrain of rats: duration of time spent in sniffing, following, crawling under and over other rats, but not passive body contact (resting, sleeping). […]
Statistical analysis. Data obtained from the measures SI time and 1 h food intake were analyzed by one-way (factor: “treatment”) ANOVA. […]

CC[C@H](C)[C@H](N)C(=O)N1CCSC1 [P32/98]
SI-time, P32/98 alone: acts not anxiolytic-like
